This is an account of results in patent US20250074906A1, “AZAINDOLE DERIVATIVE THAT INHIBITS H-PGDS” (SATO PHARMACEUTICAL CO., LTD., priority 2021, published 2025).

pIC50: −log10 of the molar value.

The term pIC50 denotes −log10 of the IC50, conventionally taken in molar units.

T1 sequence (O60760 whole entry): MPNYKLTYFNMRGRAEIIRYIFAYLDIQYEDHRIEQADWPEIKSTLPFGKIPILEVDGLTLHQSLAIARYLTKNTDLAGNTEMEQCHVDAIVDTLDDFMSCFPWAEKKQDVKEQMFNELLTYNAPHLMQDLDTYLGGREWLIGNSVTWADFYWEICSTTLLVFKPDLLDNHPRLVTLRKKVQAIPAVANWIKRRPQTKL

This assay has as its target T1, Recombinant human H-PGDS (Homo sapiens, UniProt O60760).
T1 construct: made in house; host or cells: E. coli
Kind of assay: H-PGDS inhibitory activity (prostaglandin D2 production measured by LC-MS/MS). The assay is classed as biochemical. As to conditions: recombinant human H-PGDS 1.0 nM expressed in E. coli; prostaglandin H2 25 μM; 15 min preincubation and 1 min reaction on ice. As for the experimental part:
The H-PGDS inhibitory activity of each Example compound was measured according to the method described in WO 2007/041634.
Recombinant human H-PGDS (final concentration: 1.0 nM) expressed in E. coli was mixed in an assay buffer containing 20 mM Tris-HCl (pH 8.0), 2 mM magnesium chloride, 2 mM reduced glutathione, and 0.5 mg/mL γ-globulin, and 150 μL of the mixture was dispensed into an 8-strip PCR tube (BM Equipment Co., Ltd). Test compounds (Example compounds) (16.5 μL) at various concentrations dissolved in DMSO were added and the mixture was preincubated for 15 minutes on ice.
Prostaglandin H2 (final concentration: 25 μM) (Cayman Chemical) was dispensed into another 8-strip PCR tube, and the solvent was dried and solidified using a vacuum concentrator (Thermo Fisher Scientific). To the dried and solidified prostaglandin H2 was added 50 μL of the assay buffer containing H-PGDS and each test compound after the preincubation, and the mixture was reacted on ice for 1 minute. 40 μL of this mixture was added to 40 μL of a stop solution (50 mM aqueous citric acid solution containing iron chloride at a final concentration of 4 mg/mL) to stop the reaction. Then, the reaction solution was deproteinized, added to a 96 square deep well plate (SHONANMARUHACHI STEC Co., Ltd.), and the prostaglandin D2 concentration in the reaction solution was measured by LC-MS/MS. ACQUITY (registered trademark) TQD (Waters) was used as a measuring instrument.
Prostaglandin D2 production activity (%) in the group with each test compound when a value obtained by subtracting the amount of production of prostaglandin D2 in the group without enzyme, which is non-specific production of prostaglandin D2, from the amount of production of prostaglandin D2 in the group without test compound (DMSO-addition group) in each 8-strip PCR tube is 100% was calculated. From the calculated activity value, the test compound concentration that inhibits prostaglandin D2 production by 50% (IC50) was determined.
For the molecule `O=C(NC1CCS(=O)(=O)CC1)c1ccc(-c2ncc(Cl)c3[nH]ccc23)cc1` [Example 29, 4-(7-chloro-1H-pyrrolo[3,2-c]pyridin-4-yl)-N-(1,1-dioxotetrahydrothiopyran-4-yl)benzamide], the pIC50 was 9.07. Regarding `CC(C)(O)CO[C@H]1CC[C@H](NC(=O)c2ccc(-c3nccc4[nH]ccc34)c(F)c2)CC1` [Example 9, 3-fluoro-N-[trans-4-(2-hydroxy-2-methylpropoxy)cyclohexyl]-4-(1H-pyrrolo[3,2-c]pyridin-4-yl)benzamide], the pIC50 is 8.92. Turning to `CC(C)(O)[C@H]1CC[C@H](NC(=O)c2ccc(-c3ncc(Cl)c4[nH]ncc34)cc2)CC1` [Example 48, 4-(7-chloro-1H-pyrazolo[4,3-c]pyridin-4-yl)-N-[trans-4-(2-hydroxypropan-2-yl)cyclohexyl]benzamide], the pIC50 is 8.23. The value for `Cc1cnc(-c2ccc(C(=O)N[C@H]3CC[C@H](OCC(C)(C)O)CC3)cc2)c2cc[nH]c12` [Example 4, N-[trans-4-(2-hydroxy-2-methylpropoxy)cyclohexyl]-4-(7-methyl-1H-pyrrolo[3,2-c]pyridin-4-yl)benzamide] was 8.82; that for `O=C(N[C@H]1CC[C@@H](O)CC1)c1ccc(-c2ncc(F)c3[nH]ccc23)c(F)c1` [Example 42, 3-fluoro-4-(7-fluoro-1H-pyrrolo[3,2-c]pyridin-4-yl)-N-(cis-4-hydroxycyclohexyl)benzamide] was 9.04. As for `C[C@]1(O)CC[C@H](NC(=O)c2ccc(-c3ncc(F)c4[nH]ccc34)c(F)c2)CC1` [Example 37, 3-fluoro-4-(7-fluoro-1H-pyrrolo[3,2-c]pyridin-4-yl)-N-(trans-4-hydroxy-4-methylcyclohexyl)benzamide], the pIC50 is 9.02.

In the case of `CC(C)(O)[C@H]1CC[C@H](NC(=O)c2ccc(-c3ncc(C(F)F)c4[nH]ccc34)cc2)CC1` [Example 18, 4-[7-(difluoromethyl)-1H-pyrrolo[3,2-c]pyridin-4-yl]-N-[trans-4-(2-hydroxypropan-2-yl)cyclohexyl]benzamide], the pIC50 was 8.55. As for `CC(C)(O)[C@H]1CC[C@H](NC(=O)c2ccc(-c3ncc(F)c4[nH]ccc34)cc2)CC1` [Example 13, 4-(7-fluoro-1H-pyrrolo[3,2-c]pyridin-4-yl)-N-[trans-4-(2-hydroxypropan-2-yl)cyclohexyl]benzamide], the pIC50 was 8.85.

Consider `CC(C)(O)[C@H]1CC[C@H](NC(=O)c2ccc(-c3nccc4[nH]ncc34)c(F)c2)CC1` [Example 49, 3-fluoro-N-[trans-4-(2-hydroxypropan-2-yl)cyclohexyl]-4-(1H-pyrazolo[4,3-c]pyridin-4-yl)benzamide], for which the pIC50 is 9.11. Turning to `CC(C)(O)[C@H]1CC[C@H](NC(=O)c2ccc(-c3nccc4[nH]cnc34)cc2)CC1` [Example 44, N-[trans-4-(2-hydroxypropan-2-yl)cyclohexyl]-4-(1H-imidazo[4,5-c]pyridin-4-yl)benzamide], the pIC50 is 8.40. Consider `O=C(NC12CCC(O)(CC1)C2)c1ccc(-c2ncc(F)c3[nH]ccc23)cc1` [Example 19, 4-(7-fluoro-1H-pyrrolo[3,2-c]pyridin-4-yl)-N-(4-hydroxybicyclo[2.2.1]heptan-1-yl)benzamide], for which the negative logarithm of the IC50 (pIC50) was 8.85. To `CC(C)(O)[C@H]1CC[C@H](NC(=O)c2ccc(-c3ncc(F)c4[nH]ncc34)cc2)CC1` [Example 46, 4-(7-fluoro-1H-pyrazolo[4,3-c]pyridin-4-yl)-N-[trans-4-(2-hydroxypropan-2-yl)cyclohexyl]benzamide] belongs 8.28; to `C[C@]1(O)CC[C@H](NC(=O)c2ccc(-c3ncc(Cl)c4[nH]ccc34)cc2)CC1` [Example 34, 4-(7-chloro-1H-pyrrolo[3,2-c]pyridin-4-yl)-N-(trans-4-hydroxy-4-methylcyclohexyl)benzamide], 9.07; to `C[C@]1(O)CC[C@@H](NC(=O)c2ccc(-c3ncc(F)c4[nH]ccc34)c(F)c2)CC1` [Example 40, 3-fluoro-4-(7-fluoro-1H-pyrrolo[3,2-c]pyridin-4-yl)-N-(cis-4-hydroxy-4-methylcyclohexyl)benzamide], 8.96. As for `O=C(NC1CCOCC1)c1ccc(-c2ncc(Cl)c3[nH]ccc23)cc1` [Example 28, 4-(7-chloro-1H-pyrrolo[3,2-c]pyridin-4-yl)-N-(tetrahydropyran-4-yl)benzamide], the pIC50 was 8.77. With `CC(C)(O)[C@H]1CC[C@H](NC(=O)c2ccc(-c3ncc(C#N)c4[nH]ccc34)cc2)CC1` [Example 15, 4-(7-cyano-1H-pyrrolo[3,2-c]pyridin-4-yl)-N-[trans-4-(2-hydroxypropan-2-yl)cyclohexyl]benzamide], the pIC50 was 8.47. The value for `O=C(N[C@H]1CC[C@@H](O)CC1)c1ccc(-c2ncc(F)c3[nH]ccc23)cc1` [Example 23, 4-(7-fluoro-1H-pyrrolo[3,2-c]pyridin-4-yl)-N-(cis-4-hydroxycyclohexyl)benzamide] was 9.10; that for `O=C(NC1CCOCC1)c1ccc(-c2ncc(F)c3[nH]ccc23)c(F)c1` [Example 38, 3-fluoro-4-(7-fluoro-1H-pyrrolo[3,2-c]pyridin-4-yl)-N-(tetrahydropyran-4-yl)benzamide] was 9.07; that for `C[C@]1(O)CC[C@@H](NC(=O)c2ccc(-c3ncc(Cl)c4[nH]ccc34)cc2)CC1` [Example 31, 4-(7-chloro-1H-pyrrolo[3,2-c]pyridin-4-yl)-N-(cis-4-hydroxy-4-methylcyclohexyl)benzamide] was 9.00. For `N#CC12CCC(NC(=O)c3ccc(-c4nccc5[nH]ccc45)c(F)c3)(CC1)CC2` [Example 7, N-(4-cyanobicyclo[2.2.2]octan-1-yl)-3-fluoro-4-(1H-pyrrolo[3,2-c]pyridin-4-yl)benzamide], the pIC50 is 8.89. On to `O=C(NC12CCC(O)(CC1)C2)c1ccc(-c2nccc3[nH]ccc23)c(F)c1` [Example 10, 3-fluoro-N-(4-hydroxybicyclo[2.2.1]heptan-1-yl)-4-(1H-pyrrolo[3,2-c]pyridin-4-yl)benzamide], for which the pIC50 was 9.00.

On to `O=C(NC12CCC(O)(CC1)CC2)c1ccc(-c2nccc3[nH]ccc23)c(F)c1` [Example 6, 3-fluoro-N-(4-hydroxybicyclo[2.2.2]octan-1-yl)-4-(1H-pyrrolo[3,2-c]pyridin-4-yl)benzamide], for which the pIC50 is 8.96. Consider `CC(C)(O)[C@H]1CC[C@H](NC(=O)c2ccc(-c3ncc(F)c4[nH]ccc34)c(F)c2)CC1` [Example 35, 3-fluoro-4-(7-fluoro-1H-pyrrolo[3,2-c]pyridin-4-yl)-N-[trans-4-(2-hydroxypropan-2-yl)cyclohexyl]benzamide], for which the pIC50 was 8.92. As for `O=C(NC12CCC(O)(CC1)CC2)c1ccc(-c2ncc(Cl)c3[nH]ccc23)cc1` [Example 17, 4-(7-chloro-1H-pyrrolo[3,2-c]pyridin-4-yl)-N-(4-hydroxybicyclo[2.2.2]octan-1-yl)benzamide], the pIC50 is 9.16. Regarding `O=C(N[C@H]1CC[C@H](O)CC1)c1ccc(-c2ncc(Cl)c3[nH]ccc23)cc1` [Example 30, 4-(7-chloro-1H-pyrrolo[3,2-c]pyridin-4-yl)-N-(trans-4-hydroxycyclohexyl)benzamide], the negative logarithm of the IC50 (pIC50) is 9.17.

Take `Cc1cnc(-c2ccc(C(=O)N[C@H]3CC[C@H](C4(O)CC4)CC3)cc2)c2cc[nH]c12` [Example 3, N-[trans-4-(1-hydroxycyclopropyl)cyclohexyl]-4-(7-methyl-1H-pyrrolo[3,2-c]pyridin-4-yl)benzamide]: the pIC50 is 8.72. As for `CC(C)(O)CO[C@H]1CC[C@H](NC(=O)c2ccc(-c3ncc(F)c4[nH]ccc34)cc2)CC1` [Example 22, 4-(7-fluoro-1H-pyrrolo[3,2-c]pyridin-4-yl)-N-[trans-4-(2-hydroxy-2-methylpropoxy)cyclohexyl]benzamide], the pIC50 was 8.68. To `N#C[C@H]1CC[C@H](NC(=O)c2ccc(-c3ncc(F)c4[nH]ccc34)cc2)CC1` [Example 26, N-(trans-4-cyanocyclohexyl)-4-(7-fluoro-1H-pyrrolo[3,2-c]pyridin-4-yl)benzamide] belongs 8.89; to `O=C(NC12CCC(O)(CC1)CC2)c1ccc(-c2ncc(F)c3[nH]ccc23)cc1` [Example 16, 4-(7-fluoro-1H-pyrrolo[3,2-c]pyridin-4-yl)-N-(4-hydroxybicyclo[2.2.2]octan-1-yl)benzamide], 9.00. As to `Cc1cnc(-c2ccc(C(=O)NC34CCC(O)(CC3)CC4)cc2)c2cc[nH]c12` [Example 1, N-(4-hydroxybicyclo[2.2.2]octan-1-yl)-4-(7-methyl-1H-pyrrolo[3,2-c]pyridin-4-yl)benzamide], the pIC50 was 9.00. Consider `O=C(N[C@H]1CC[C@H](O)CC1)c1ccc(-c2nccc3[nH]ccc23)c(F)c1` [Example 12, 3-fluoro-N-(trans-4-hydroxycyclohexyl)-4-(1H-pyrrolo[3,2-c]pyridin-4-yl)benzamide], for which the pIC50 is 9.06.
